From US20230096766A1, “AMINO ACID HAVING FUNCTIONAL GROUP CAPABLE OF INTERMOLECULAR HYDROGEN BONDING, PEPTIDE COMPOUND CONTAINING SAME AND METHOD FOR PRODUCTION THEREOF” (Chugai Seiyaku Kabushiki Kaisha, priority 2018, published 2023)
Like-named read-outs stand apart in the source and are kept apart here. *1 amine or outer side, *2 acyl side, *3 side chain or, on linkers, in order; H or OH if unused. Where a SMILES comes first, the peptide text is derived from it. Bridges are numbered along the chain shown (N, C = ends). [ ]: non-standard residue; d: D form. The star is where a group is joined. X5 = O=C([C@H](CCC[C@@H]1CC(F)(F)CN1)N[*:1])[*:2]; NMeAla(4-thiazolyl) = CN[C@@H](Cc1cscn1)C(=O)O; NMePhe(3-Cl) = CN[C@@H](Cc1cccc(Cl)c1)C(=O)O; Pro(4,4-F2)ψ(CH2) = FC1(F)CN[C@H](C*)C1; NMehPhe = CN[C@@H](CCc1ccccc1)C(=O)O; hhPhe = N[C@@H](CCCc1ccccc1)C(=O)O; NMeF = CN[C@@H](Cc1ccccc1)C(=O)O; NMeGABA = CN(CCCC(=O)[*:2])[*:1]; hPhe = N[C@@H](CCc1ccccc1)C(=O)O; NMeD = CN[C@@H](CC(=O)O)C(=O)O; CH2CH(OH)CF3 = OC(C*)C(F)(F)F; NMeL = CN[C@@H](CC(C)C)C(=O)O; Propyl(2R-OH) = C[C@@H](O)C*; NMeV = CN[C@H](C(=O)O)C(C)C; NMeAbu = CC[C@H](NC)C(=O)O; NMeA = CN[C@@H](C)C(=O)O; Piperidide = C1CCN(*)CC1; dAbu = CC[C@@H](N)C(=O)O; dNMeA = CN[C@H](C)C(=O)O; NBuGly = CCCCNCC(=O)O; Sar = CNCC(=O)O; tBu = CC(C)(C)*

How the values were obtained:
[1] = test system: Caco-2
[2] = in vitro; conditions: human
[3] = Membrane permeability test of cyclic peptides (Caco-2, modified/improved method of WO 2018/124162); conditions: human
[4] = Caco-2, Caco-2 (membrane permeability), Table 10, cyclic peptides containing Ser(S-4-F2-Pyrro-Me) (G) or Nva(2-R-4-F2-Pyrro) (H)

| Compound | Papp ([2]; Caco-2, Caco-2 (cm/sec)) [×10⁻⁶ cm/s] | Caco-2 [1] [cm/s] | also measured |
| --- | --- | --- | --- |
| CCCCN1CC(=O)N(C)[C@@H](CC(C)C)C(=O)N[C@@H](COC(C)(C)C)C(=O)N(C)[C@@H](Cc2ccccc2)C(=O)N(C)[C@@H](CC(C)C)C(=O)N[C@H](C(=O)N2CCCCC2)CC(=O)N[C@H](C(C)C)C(=O)N(C)[C@@H](Cc2ccccc2)C(=O)N[C@@H](COCC(O)C(F)(F)F)C(=O)N(C)[C@@H](CC(C)C)C(=O)N[C@@H]([C@@H](C)O)C1=O (stereo partly drawn) [Compound D01] ([dV][NMeF]S(CH2CH(OH)CF3)[NMeL]T[NBuGly][NMeL]S(tBu)[NMeF][NMeL]D-Piperidide; lactam N-11) |  |  | Caco-2 (membrane permeability) ([1]; human): 0.07 ×10⁻⁶ cm/s |
| CC(C)C[C@H]1C(=O)N(C)[C@@H](C(C)C)C(=O)N[C@@H](Cc2ccccc2)C(=O)N[C@H](C(=O)N(C)[C@@H](Cc2ccccc2)C(=O)N[C@@H](C)C(=O)N2CCCCC2)CC(=O)N(C)CCCC(=O)N[C@@H](C(C)C)C(=O)N(C)[C@@H](CC(C)C)C(=O)N[C@@H]([C@@H](C)O)C(=O)N(C)[C@@H](Cc2ccccc2)C(=O)NCC(=O)N1C [pd198] ([NMeGABA]V[NMeL]T[NMeF]G[NMeL][NMeV]FD[NMeF]A-Piperidide; lactam N-10) | 2.7 | 2.7e-06 |  |
| CC(C)C[C@@H]1NC(=O)[C@H](Cc2ccccc2)N(C)C(=O)[C@H](C)N(C)C(=O)C[C@@H](C(=O)N2CCCCC2)NC(=O)[C@H](CC(C)C)N(C)C(=O)[C@H](Cc2ccccc2)N(C)C(=O)[C@H](Cc2ccccc2)NC(=O)[C@H](Cc2cscn2)N(C)C(=O)[C@H](C)N(C)C(=O)[C@H](CC(C)C)N(C)C(=O)[C@H]([C@@H](C)O)NC1=O [pd238] ([NMeA][NMeF]LT[NMeL][NMeA][NMeAla(4-thiazolyl)]F[NMeF][NMeL]D-Piperidide; lactam N-11) |  |  | Papp ([2]; Caco-2, Caco-2 (cm/sec) Papp): 0.096 ×10⁻⁶ cm/s; Caco-2 (cm/sec) Papp ([1]; human): 8.8e-08 cm/s |
| CC(C)C[C@@H]1NC(=O)[C@H](CC(C)C)N(C)C(=O)[C@H](C)N(C)C(=O)C[C@@H](C(=O)N2CCCCC2)NC(=O)[C@H](CC(C)C)N(C)C(=O)[C@H](Cc2ccccc2)N(C)C(=O)[C@H](Cc2ccccc2)N(C)C(=O)[C@H]([C@@H](C)O)NC(=O)[C@H](Cc2ccccc2)N(C)C1=O [pd211] ([NMeA][NMeL]L[NMeF]T[NMeF][NMeF][NMeL]D-Piperidide; lactam N-9) |  |  | Caco-2 ([1]; human): 1.4e-05 cm/s |
| CC(C)C[C@H]1C(=O)N(C)[C@@H](Cc2ccccc2)C(=O)N[C@@H](COC(C)(C)C)C(=O)N(C)[C@@H](C)C(=O)N[C@H](C(=O)N2CCCCC2)CC(=O)N(C)[C@@H](C)C(=O)N(C)[C@@H](Cc2ccccc2)C(=O)N[C@@H](CCc2ccccc2)C(=O)N(C)[C@@H](CC(C)C)C(=O)N[C@@H]([C@@H](C)O)C(=O)N(C)CC(=O)N1C [pd183] ([NMeA][NMeF][hPhe][NMeL]T[Sar][NMeL][NMeF]S(tBu)[NMeA]D-Piperidide; lactam N-11) | 2.1 | 2.1e-06 |  |
| CC(C)C[C@H]1C(=O)N(C)[C@@H](CCc2ccccc2)C(=O)N[C@@H](COC(C)(C)C)C(=O)N(C)[C@@H](C)C(=O)N[C@H](C(=O)N2CCCCC2)CC(=O)N(C)[C@@H](C)C(=O)N(C)[C@@H](Cc2ccccc2)C(=O)N[C@@H](CCc2ccccc2)C(=O)N(C)[C@@H](CC(C)C)C(=O)N[C@@H]([C@@H](C)O)C(=O)N(C)CC(=O)N1C [pd184] ([NMeA][NMeF][hPhe][NMeL]T[Sar][NMeL][NMehPhe]S(tBu)[NMeA]D-Piperidide; lactam N-11) | 1.2 | 1.2e-06 |  |
| CCCCN1CC(=O)N(C)[C@@H](CC(C)C)C(=O)N[C@@H](COC(C)(C)C)C(=O)N(C)[C@@H](Cc2ccccc2)C(=O)N(C)[C@@H](CC(C)C)C(=O)N[C@H](C(=O)N2CCCCC2)CC(=O)N[C@H](C(C)C)C(=O)N(C)[C@@H](Cc2ccccc2)C(=O)N[C@@H](COCC(O)C(F)(F)F)C(=O)N(C)[C@@H](CC(C)C)C(=O)N[C@@H]([C@@H](C)O)C1=O (stereo partly drawn) [Compound C01] ([dV][NMeF]S(CH2CH(OH)CF3)[NMeL]T[NBuGly][NMeL]S(tBu)[NMeF][NMeL]D-Piperidide; lactam N-11) |  |  | Caco-2 (membrane permeability) ([1]; human): 0.15 ×10⁻⁶ cm/s |
| CC(C)C[C@@H]1NC(=O)[C@H](Cc2ccccc2)N(C)C(=O)[C@@H](C)N(C)C(=O)C[C@@H](C(=O)N2CCCCC2)N(C)C(=O)[C@H](Cc2ccccc2)N(C)C(=O)[C@H](Cc2ccccc2)N(C)C(=O)[C@H](COC(C)(C)C)NC(=O)[C@H](C(C)C)N(C)C(=O)CN(C)C(=O)[C@H]([C@@H](C)O)NC(=O)[C@H](CC(C)C)N(C)C1=O [pd199] ([dNMeA][NMeF]L[NMeL]T[Sar][NMeV]S(tBu)[NMeF][NMeF][NMeD]-Piperidide; lactam N-11) | 2.6 | 2.6e-06 |  |
| CC(C)C[C@H]1C(=O)N[C@@H](COC(C)(C)C)C(=O)N(C)[C@@H](Cc2ccccc2)C(=O)N(C)[C@@H](C)C(=O)N[C@H](C(=O)N2CCCCC2)CC(=O)N[C@H](C(C)C)C(=O)N(C)[C@@H](Cc2ccccc2)C(=O)N[C@@H](CCCc2ccccc2)C(=O)N(C)[C@@H](CC(C)C)C(=O)N[C@@H]([C@@H](C)O)C(=O)N(C)CC(=O)N1C [pd192] ([dV][NMeF][hhPhe][NMeL]T[Sar][NMeL]S(tBu)[NMeF][NMeA]D-Piperidide; lactam N-11) | 1.1 | 1.1e-06 |  |
| CC(C)C[C@H]1C(=O)N[C@@H]([C@@H](C)O)C(=O)N(C)CC(=O)N(C)[C@@H](C(C)C)C(=O)N[C@@H](Cc2ccccc2)C(=O)N(C)[C@@H](Cc2cccc(Cl)c2)C(=O)N(C)[C@@H](CC(C)C)C(=O)N(C)[C@H](C(=O)N2CCCCC2)CC(=O)N2CCC[C@H]2C(=O)N[C@@H](Cc2ccccc2)C(=O)N[C@@H](COC(C)(C)C)C(=O)N1C [pd162] (PFS(tBu)[NMeL]T[Sar][NMeV]F[NMePhe(3-Cl)][NMeL][NMeD]-Piperidide; lactam N-11) | 1.2 | 1.2e-06 |  |
| CC(C)C[C@H]1C(=O)N[C@@H]([C@@H](C)O)C(=O)N(C)CC(=O)N(C)[C@@H](C(C)C)C(=O)N[C@@H](Cc2ccccc2)C(=O)N(C)[C@@H](Cc2cccc(Cl)c2)C(=O)N(C)[C@@H](CC(C)C)C(=O)N(C)[C@H](C(=O)N2CCCCC2)CC(=O)N(C)[C@H](C)C(=O)N[C@@H](Cc2ccccc2)C(=O)N[C@@H](COC(C)(C)C)C(=O)N1C [pd167] ([dNMeA]FS(tBu)[NMeL]T[Sar][NMeV]F[NMePhe(3-Cl)][NMeL][NMeD]-Piperidide; lactam N-11) | 1.7 | 1.7e-06 |  |
| CCCCN1CC(=O)N(C)[C@@H](Cc2ccccc2)C(=O)N(C)[C@@H](CC(C)C)C(=O)N[C@@H](C(C)C)C(=O)N(C)[C@@H](CC(C)C)C(=O)N[C@H](C(=O)N2CCCCC2)CC(=O)N(C)CC(=O)N(C)[C@@H](CC(C)C)C(=O)N[C@@H](COC[C@@H]2CC(F)(F)CN2)C(=O)N(C)[C@@H](CC(C)C)C(=O)N[C@@H]([C@@H](C)O)C1=O [Compound G06] ([Sar][NMeL]S(Pro(4,4-F2)ψ(CH2))[NMeL]T[NBuGly][NMeF][NMeL]V[NMeL]D-Piperidide; lactam N-11) |  |  | Papp [3, 4]: 1.8 ×10⁻⁶ cm/s |
| CCCCN1CC(=O)N(C)[C@@H](CC(C)C)C(=O)N[C@@H](CCC[C@@H]2CC(F)(F)CN2)C(=O)N(C)[C@@H](CC(C)C)C(=O)N(C)[C@@H](CC(C)C)C(=O)N[C@H](C(=O)N2CCCCC2)CC(=O)N[C@H](CC)C(=O)N(C)[C@@H](Cc2ccccc2)C(=O)N[C@@H](CC(C)C)C(=O)N(C)[C@@H](CC)C(=O)N[C@@H]([C@@H](C)O)C1=O [Compound H01] ([dAbu][NMeF]L[NMeAbu]T[NBuGly][NMeL][X5][NMeL][NMeL]D-Piperidide; lactam N-11) |  |  | Papp [3, 4]: 0.25 ×10⁻⁶ cm/s |
| CC[C@H](C)[C@@H]1NC(=O)[C@H](CC(C)C)N(C)C(=O)[C@H](COC(C)(C)C)NC(=O)[C@H](Cc2ccccc2)N(C)C(=O)[C@H](Cc2ccccc2)N(C)C(=O)[C@H](COC[C@@H](C)O)NC(=O)[C@H](CC(C)C)N(C)C(=O)CCCN(C)C(=O)C[C@@H](C(=O)N2CCCCC2)NC(=O)[C@H](CC(C)C)N(C)C(=O)[C@H](CC(C)C)N(C)C1=O [AP84] ([NMeGABA][NMeL]S(Propyl(2R-OH))[NMeF][NMeF]S(tBu)[NMeL]I[NMeL][NMeL]D-Piperidide; lactam N-11) |  |  | Papp ([3]; Caco-2, Caco-2 (cm/sec), membrane permeability of cyclic peptides, Caco-2): 0.58 ×10⁻⁶ cm/s |
| CC[C@H]1C(=O)N(C)[C@@H](Cc2ccccc2)C(=O)N[C@@H](CC(C)C)C(=O)N(C)[C@@H](CC(C)C)C(=O)N(C)[C@@H](CC(C)C)C(=O)N[C@@H](COC[C@@H]2CC(F)(F)CN2)C(=O)N(C)CC(=O)N(C)[C@@H](CC(C)C)C(=O)N[C@H](C(=O)N2CCCCC2)CC(=O)N(C)[C@@H](C)C(=O)N[C@@H](CC(C)C)C(=O)N1C [Compound G10] ([NMeA]L[NMeAbu][NMeF]L[NMeL][NMeL]S(Pro(4,4-F2)ψ(CH2))[Sar][NMeL]D-Piperidide; lactam N-11) |  |  | Papp [3, 4]: 1.1 ×10⁻⁶ cm/s |
| CCCCN1CC(=O)N(C)[C@@H](Cc2ccccc2)C(=O)N(C)[C@@H](CC(C)C)C(=O)N[C@@H](CCC[C@@H]2CC(F)(F)CN2)C(=O)N(C)[C@@H](CC(C)C)C(=O)N[C@H](C(=O)N2CCCCC2)CC(=O)N(C)CC(=O)N(C)[C@@H](CC(C)C)C(=O)N[C@@H](C(C)C)C(=O)N(C)[C@@H](CC(C)C)C(=O)N[C@@H]([C@@H](C)O)C1=O [Compound H07] ([Sar][NMeL]V[NMeL]T[NBuGly][NMeF][NMeL][X5][NMeL]D-Piperidide; lactam N-11) |  |  | Papp [3, 4]: 0.16 ×10⁻⁶ cm/s |
| CC[C@H](C)[C@@H]1NC(=O)[C@@H](C)N(C)C(=O)C[C@@H](C(=O)N(C)[C@@H](Cc2ccccc2)C(=O)N[C@@H](C)C(=O)N2CCCCC2)NC(=O)[C@H](Cc2ccccc2)N(C)C(=O)CN(C)C(=O)[C@H]([C@@H](C)O)NC(=O)[C@H](C)N(C)C(=O)[C@H](C(C)C)N(C)C(=O)[C@H](Cc2ccccc2)NC(=O)[C@H](CC(C)C)N(C)C(=O)[C@H](CC(C)C)N(C)C1=O [pd222] ([dNMeA]I[NMeL][NMeL]F[NMeV][NMeA]T[Sar][NMeF]D[NMeF]A-Piperidide; lactam N-11) |  |  | Papp ([3]; Caco-2, Caco-2 (cm/sec), Table 36, Papp, sequences having Papp ≥ 1.0 × 10^−6 at ARC = 3): 1.1 ×10⁻⁶ cm/s |
